Three compounds from ChEMBL document CHEMBL5625243, “Computational methods to analyze and predict the binding mode of inhibitors targeting both human and mushroom tyrosinase” (Eur J Med Chem, 2023) can be followed below.

Activity calls are given as the source filed them. No cut-off for these calls is given here.

The target in assay [1] is T1, Tyrosinase (Homo sapiens) (UniProt P14679).
T1 sequence (whole entry): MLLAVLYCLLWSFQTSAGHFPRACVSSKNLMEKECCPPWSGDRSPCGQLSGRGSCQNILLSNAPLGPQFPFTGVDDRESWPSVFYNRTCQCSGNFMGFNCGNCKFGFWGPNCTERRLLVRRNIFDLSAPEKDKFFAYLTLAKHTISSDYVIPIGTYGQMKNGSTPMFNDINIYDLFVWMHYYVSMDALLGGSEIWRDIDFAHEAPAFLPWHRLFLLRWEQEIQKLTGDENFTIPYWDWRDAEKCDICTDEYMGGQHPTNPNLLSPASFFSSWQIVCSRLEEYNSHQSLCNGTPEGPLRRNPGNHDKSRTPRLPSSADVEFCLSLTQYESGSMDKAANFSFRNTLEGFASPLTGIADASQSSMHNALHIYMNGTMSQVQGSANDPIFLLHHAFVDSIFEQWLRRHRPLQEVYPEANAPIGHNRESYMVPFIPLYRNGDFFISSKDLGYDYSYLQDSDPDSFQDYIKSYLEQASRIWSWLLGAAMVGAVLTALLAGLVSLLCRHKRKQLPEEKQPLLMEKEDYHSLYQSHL
The experiment in a line: Binding affinity to human Tyrosinase assessed as gibbs free energy change by MM-GBSA method.

Assay [2] has as its target T2, Tyrosinase (Homo sapiens, UniProt P14679).
T2 sequence (P14679 whole entry): T1 sequence (whole entry)
Kind of assay: Inhibition of human tyrosinase using L-DOPA as substrate by spectrophotometer analysis.

For assay [3], the target named is Mushroom tyrosinase (Agaricus bisporus) (UniProt O42713+Q00024+C7FF04+C7FF05). Kind of assay: Binding affinity to mushroom tyrosinase assessed as gibbs free energy change by MM-GBSA method. The assay is classed as protein assay.
Assay [4] addresses T2, Tyrosinase. Kind of assay: Binding affinity to human tyrosinase using l-DOPA as substrate assessed as inhibition constant by Michaelis-Menten plot analysis.
The target in assay [5] is T3, Mushroom tyrosinase (Agaricus bisporus, UniProt O42713+Q00024+C7FF04+C7FF05). Kind of assay: Inhibition of mushroom tyrosinase using L-DOPA as substrate by spectrophotometer analysis. The assay is classed as protein assay.
Assay [6] addresses T1, Tyrosinase (Homo sapiens). The experiment in a line: Competitive inhibition of human tyrosinase using L-DOPA substrate upto 2.08 uM by Lineweaver-Burk plot analysis.
For assay [7], the target named is T3, Mushroom tyrosinase. Kind of assay: Inhibition of mushroom tyrosinase using L-DOPA as substrate. The assay is classed as protein assay.

By IC50 is commonly meant the point on the concentration scale where inhibition reaches its midpoint. A high value points to lower potency. By Ki is commonly meant a measure of affinity in units of concentration, obtained from inhibition or displacement.

`CC(C)C(=O)Nc1nc(-c2ccc(O)cc2O)cs1`: the deltaG is -14.8 kcal/mol in assay [1] and 3.34 kcal/mol in assay [3]. Besides, the figures for the concentration for half-maximal inhibition (IC50) on Tyrosinase [2] and at Mushroom tyrosinase [5] were 3.8 µM and 108 µM, respectively. Also, on Tyrosinase [4], the Ki was 0.92 µM.
On to `O=C(CN1CCC(Cc2ccccc2)CC1)N1CCN(c2ccc(O)cc2)CC1`, for which the figures for the deltaG in assay [1] and in assay [3] were 0 kcal/mol and -4.54 kcal/mol, respectively. Half-maximal inhibition against Tyrosinase [2] (IC50) required 1100 µM.
As for `COc1ccccc1C(=O)N1CCN(c2ccc(O)cc2)CC1`, the values for the IC50 against Tyrosinase [2] and at Mushroom tyrosinase [7] were 5.4 µM and 3.52 µM, respectively. The inhibition constant Ki at Tyrosinase [4] worked out at 1.02 µM. Further, the inhibition entry in assay [6] is “Active”.
